Reference: publication PMC4979516, “Quinazoline-based tricyclic compounds that regulate programmed cell death, induce neuronal differentiation, and are curative in animal models for excitotoxicity and hereditary brain disease” (Cell Death Discovery, 2015)
“Also recorded” adds a separate entry of the source.

B1: NGF: mouse NGF, 2.5S from Promega; classical agent to induce neuronal differentiation of PC12 cells (protein, UniProt P01139 122-241, looked up)
Beta-nerve growth factor: SSTHPVFHMGEFSVCDSVSVWVGDKTTATDIKGKEVTVLAEVNINNSVFRQYFFETKCRASNPVESGCRGIDSKHWNSYCTTTHTFVKALTTDEKQAAWRFIRIDTACVCVLSRKATRRG

Legend:
[1] = target: T1, 18 kDa translocator protein (TSPO) (Rattus norvegicus, UniProt P16257); experiment: TSPO binding, displacement of [3H]PK 11195 in rat kidney membranes
T1 construct: 400 μl of homogenized rat kidney membranes (5 mg of homogenate/ml); from tissue; host or cells: rat kidney (homogenized membranes)
T1 sequence (P16257 whole entry): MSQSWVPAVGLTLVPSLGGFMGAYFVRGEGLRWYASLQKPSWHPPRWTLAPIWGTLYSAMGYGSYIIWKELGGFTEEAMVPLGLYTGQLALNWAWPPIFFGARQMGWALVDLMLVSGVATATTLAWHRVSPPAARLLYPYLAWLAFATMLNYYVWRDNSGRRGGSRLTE
Experimental: After incubation for 60 min at 4 °C, samples were filtered under vacuum over Whatman GF/C filters and washed three times with 5 ml of 50 mM Tris-HCl buffer, pH 7.4. The filters were incubated in CytoScint (MP Biomedicals) and radioactivity was measured after 12 h with a 1600 CA Tri-Carb liquid scintillation analyzer (Packard). Inhibitory constant (Ki) values were calculated by the equation Ki=IC50/(1+C/Kd), where C=[^3H]

U118MG cells [2] = experiment: LDH cytotoxicity assay, glutamate-induced cell death of U118MG cells; conditions: for Lethal effects of the compound (LDH): compound 10-100 μM by itself or with 35 mM glutamate; for Protection against glutamate-induced cell death (LDH): 35 mM glutamate, compound 10-100 μM, 24 h pretreatment
Experimental: (1) For U118MG cells, glutamate at a concentration of 35 mM was applied with or without MGV-1. As discussed, glutamate levels in normal healthy brain tissue can average 15 mM, and these levels can be doubled in diseased brain tissue, whereas in cell organelles glutamate levels can be as high as 250 mM (as discussed). […] In more detail, U118MG cells were seeded, 2×10^5 cells per well of 6-well plates and 6×10^3 cells per well of 96-well plates. Twenty-four hours after seeding, U118MG cells were pretreated with MGV-1 (or one of the other compounds) at various concentrations from 0.1 nM–100 μM. Twenty-four hours after the pretreatment, the cells were exposed to 35 mM of glutamate. […] The negative control was vehicle, that is, ethanol with a final concentration of 1%. […] The positive control was exposure to 35 mM of glutamate alone (with 200 μM of glycine).
Wells of 96-well plates were with 6000 cells per well and treated according the protocol presented above. We used the Cytotoxicity Detection Kit (LDH) (Roche Pharmacuticals) according to the manufacturer’s instructions. When cell plasma membranes are damaged, the cytoplasmic enzyme LDH is released into the medium. The amount of formazan formed is proportional to the amount of LDH released.[77] The resulting color intensity is proportional to the number of damaged cells. Absorbance at 492 nm with reference at 690 nm was measured with the Spectrophotometer Zenyth 200 (Anthos) and the results were calculated and normalized according to the formula presented by the manufacturer.

R6-2 mice = experiment: R6-2 transgenic mouse model for Huntington disease (lifespan, behavior); type: in vivo; conditions: for Week of age until which 50% of treated R6-2 mice were still alive: 7.5 mg/kg s.c. daily 5 days per week, vehicle: 11th week (2-Cl-MGV-1 study), 10th week (2-Cl-MGV-2 study); for Uncontrollable tremor activity of R6-2 mice: 7.5 mg/kg s.c., data not shown; for Effect on behavior and lifespan of R6-2 mice: pilot studies, s.c. daily 5 days per week, MGV-1 15 mg/kg, PK 11195 15 mg/kg, MGV-2 15 and 7.5 mg/kg
Excerpt: Huntington disease in humans is a hereditary disease including neurodegeneration leading to degradation in motor performance, continual involuntary movements, tremors, cardiovascular and respiratory impairments, and finally leading to death of the patients having the disease.[88] For this study, R6-2 mice (~120 CAG repeats B6CBA-Tg(HDexon1)62 Gpb/3J) mice were used as a transgenic mouse model for Huntington disease. For this purpose, mice obtained from the Jackson Laboratory were bred. In particular, males hemizygous for Tg(HDexon1)62 Gpb, and females from the wild-type background strain B6CBAF1/J, were bred according to the protocol of Jackson Laboratory.
For tests of drug efficacy, male offspring hemizygous for Tg(HDexon1)62 Gpb were used to determine drug effect on lifespan, motor activity, and general well-being of the animals. Drug treatment for this study consisted of daily (5 continuous days per week) subcutaneous injections in the neck area of mice with 20 μl of: the drug vehicle DMSO (vehicle control), 2-Cl-MGV-1(7.5 mg/kg) and 2-Cl-MGV-2 (7.5 mg/kg). […] Quantities were used according to previous studies regarding TSPO ligands[48] and adapted depending on the findings in the course of the pilot studies. The treatments were given until the animals died a natural death. Behavioral experiments included distance covered in an open field apparatus,[89] freezing,[89] and balance on a rotor-rod.[90] Spontaneous tremor activity was evaluated using a Hamilton–Kinder sensor in a soundproof ventilated apparatus (Kinder Scientific). The assays for locomotor activity, tremors, and body weight were performed on a weekly basis, together with evaluation of the well-being of the mice. Finally, the day of death was noted. As lifespan data were most pronounced, these are presented in the present description of the results. No adverse effects of any of the drug treatments were noted, neither for specific tests, nor for general observations. Importantly, DMSO had no effect by itself as compared with naive mice or saline-injected mice with various behavioral assays.[20]

[3] = tested on: PC12 cells strain #1 (polygonal cells); experiment: Neuronal differentiation (neurite sprouting) of PC12 strain #1; type: cell-based, rat; conditions: strain #1, only polygonal cells
[4] = tested on: NeuN expression in PC12 cells strain #3; experiment: Western blot of NeuN in PC12 strain #3; type: cell-based, rat; conditions: PC12 strain #3, versus vehicle control
Experimental: The relative protein levels of TSPO and other proteins related to neurodifferentiation (including β-actin, NeuN, tubulin-3β), were assayed by immunoblotting with the aid electrophoresis through 12% SDS-polyacrylamide gel, according to previously described methods.[71] A priori, general protein levels were measured by the method of Bradford using BSA as a standard.[75] After electrophoresis, the gels were subjected to electrophoretic transfer to nitrocellulose membranes. Then, the membranes were blocked for 1 h in 5% non-fat milk in 62.5 mM sodium phosphate buffer, pH 7.4, containing 100 mM NaCl, and 0.1% (v/v) Tween-20 (PBS-T) and then incubated for 2 h or overnight at 4 °C with the appropriate antibodies: anti-tubulin-3β 1 : 10 000, anti-NeuN 1 : 1000, anti β-actin 1 : 15 000, and anti-TSPO 1 : 10 000.[73] After washing with TBS-T, the membranes were incubated with IgG secondary antibody linked to horseradish peroxidase (anti-rabbit IgG 1 : 20 000, anti-mouse IgG 1 : 10 000, as appropriate, from Jackson Immunologicals, West Grove, PA, USA) in TBS-T at room temperature. Binding of antibodies to the membrane was detected with the EZ-ECL-detection reagent (Biological Industries), using the ImageQuant LAS 4010 apparatus and Totallab Quant quantitative image analysis of Totallab (Newcastle upon Tyne, England).

U118MG cells [5] = experiment: Mitochondrial membrane potential (JC-1) assay in U118MG cells exposed to glutamate; type: cell-based, human; conditions: 25 μM compound, 35 mM glutamate
Excerpt: JC-1 was used to assay changes in Δψm, as described previously.[71],[79] Owing to charges distributed along JC-1 molecules, they pass unimpaired (charged) mitochondrial membranes and enter the mitochondrial matrix. There the J-molecules form J-aggregates, which emit at 590 nm (orange–red fluorescence). […] The monomers emit at 527 nm (green fluorescence). A decrease in the red–green fluorescence intensity ratio is an indication for mitochondrial depolarization. As a positive control, the proton ionophore carbonyl cyanide m-chlorophenylhydrazone was used as described previously.[71] Cells were collected and prepared for suspension in 10 μg/ml of JC-1 solution in PBS. After incubation at 37 °C for 30 min in the dark, the cells were washed with 0.5 ml of PBS, and the cell suspensions were analyzed with the BD FACSCalibur flow cytometer.

U118MG cells [6] = experiment: Mitochondrial ROS / cardiolipin oxidation (NAO) assay in U118MG cells exposed to glutamate; type: cell-based, human; conditions: 25 μM compound, 35 mM glutamate
Excerpt: Cardiolipin is present in the inner mitochondrial membrane, at the contact sites with the outer mitochondrial membrane. By application of NAO, we assayed cardiolipin peroxidation as an indication of mitochondrial ROS generation, as described previously.[71] NAO binds with high affinity to non-oxidized cardiolipin in a 2 : 1 ratio, but with less affinity to oxidized cardiolipin, the latter which is reflected by lower levels of green NAO fluorescence.[78] For our study, cells were collected and centrifuged at 1200×g for 5 min, 4 °C. Cell pellets were re-suspended in 0.5 ml of 0.1 μM NAO and incubated for 30 min at 37 °C in the dark. Then, the cells were washed once with 0.5 ml PBS and transferred into 5 ml FALCON FACS tubes and analyzed with the aid of a BD FACSCalibur flow cytometer using CellQuest software (BD Biosciences, Franklin Lakes, NJ, USA).

PC12 cells = experiment: Neuronal differentiation of PC12 cells, strain not specified; type: cell-based, rat; conditions: agent by itself; MGV-1 50 μM
Experimental: For our newly developed differentiation method by MGV-1 in combination with glutamate, PC12 cells were plated onto poly-L-lysine coated culture plates and Petri dishes at a relatively low density (5.2×10^3 cells/cm^2 for six-well plates and 3.6×10^3 cells/cm^2 for Petri dishes), in DMEM medium containing 8% heat-inactivated FBS and 8% horse serum. […] Exposure to vehicle alone (culture medium with 1% of ethanol) was used as the control.
The major and determining indication of neural differentiation of PC12 cells is neurite development.[23],[80] […] The number of differentiated cells was determined by visual examination of the captured fields. In particular, a line was drafted at half height of the image and the cell bodies crossed by the line were further analyzed regarding differentiation. […] Cells with at least one identifiable neurite with a length at least equal to the cell body diameter were scored, and their number expressed as a percentage of the total number of cells crossed by said line. In addition, for each of these cells, the length of the longest neurite was determined (using AxioVision Image software, Zeiss). […]

Molecule | Ki [1] [µM] | Lethal effects of the compound (LDH) (U118MG cells [2]) | Protection against glutamate-induced cell death (LDH) (U118MG cells [2]) | also measured
CN(C)C(=O)Oc1nc(-c2ccccc2Cl)nc2ccccc12 [2-Cl-MGV-1, 2-(2-chlorophenyl)quinazolin-4-yl dimethylcarbamate] | 0.825 ± 0.315 | very little lethality by itself at any concentration; also recorded: shows the least lethal effects when applied just by itself |  | Week of age until which 50% of treated R6-2 mice were still alive (R6-2 mice): 12 week; Uncontrollable tremor activity of R6-2 mice (R6-2 mice): reduction of uncontrollable tremor activity
CCN(C)C(=O)Oc1nc(-c2ccccc2Cl)nc2ccccc12 [2-Cl-MGV-2, 2-(2-chlorophenyl)quinazolin-4-yl ethyl(methyl)carbamate] | 0.08 ± 0.011 | undesired lethal effect at high concentrations when given just by itself | protects excellently; also recorded: very effective in protecting against glutamate-induced cell death | Week of age until which 50% of treated R6-2 mice were still alive (R6-2 mice): 12 week; Uncontrollable tremor activity of R6-2 mice (R6-2 mice): reduction of uncontrollable tremor activity
CCN(CC)C(=O)Oc1nc(-c2ccccc2Cl)nc2ccccc12 [2-Cl-MGV-3, 2-(2-chlorophenyl)quinazolin-4-yl diethylcarbamate] | 0.0026 ± 0.001 | undesired lethal effects at 50 and 100 μM both with and without glutamate exposure |  | 
N[C@@H](CCC(=O)O)C(=O)O [Glu, Glutamate, reference compound] |  |  |  | Differentiation of PC12 strain #1 by the agent by itself [3]: do not have this effect; Increase of NeuN expression (western blot) [4]: do not enhance NeuN expression significantly
CCN(C)C(=O)Oc1nc(-c2ccccc2)nc2ccccc12 [MGV-2, 2-phenylquinazolin-4-yl ethyl(methyl)carbamate] | 0.08 ± 0.011 | undesired lethal effects at high concentrations (in particular 100 μM) | protect against lethal effects of glutamate; also recorded: already quite effective at 10 μM | Prevention of collapse of the ΔΨm induced by glutamate (JC-1) (U118MG cells [5]): prevention of the collapse of the ΔΨm; Prevention of cardiolipin oxidation / mitochondrial ROS generation induced by glutamate (NAO) (U118MG cells [6]): prevent cardiolipin oxidation; Effect on behavior and lifespan of R6-2 mice (R6-2 mice): effects reminiscent of those of 2-Cl-MGV-1 and 2-Cl-MGV-2, but less consistent
CCN(CC)C(=O)Oc1nc(-c2ccccc2)nc2ccccc12 [MGV-3, 2-phenylquinazolin-4-yl diethylcarbamate] | 0.0026 ± 0.001 | undesired lethal effects at high concentrations (in particular 100 μM) | protect against lethal effects of glutamate; also recorded: already quite effective at 10 μM | 
CCC(C)N(C)C(=O)c1cc2ccccc2c(-c2ccccc2Cl)n1 (centres unmarked) [PK 11195, N-butan-2-yl-1-(2-chlorophenyl)-N-methylisoquinoline-3-carboxamide, reference compound] |  |  |  | Neuronal differentiation of PC12 cells (neurite outgrowth) (PC12 cells): can differentiate PC12 cells; Effect on behavior and lifespan of R6-2 mice (R6-2 mice): did not show such effects
B1 |  |  |  | Differentiation of PC12 strain #1 by the agent by itself [3]: do not have this effect; Increase of NeuN expression (western blot) [4]: do not enhance NeuN expression significantly
